PMC9317670, “Temporal and Wash-Out Studies Identify Medicines for Malaria Venture Pathogen Box Compounds with Fast-Acting Activity against Both Trypanosoma cruzi and Trypanosoma brucei” (Microorganisms, 2022)
Read-outs that look alike come from different tables or passages of the source.

How the values were obtained:
[1] = system: T. cruzi; test: T. cruzi temporal image-based assay, 24 h exposure; type: cell-based, Trypanosoma cruzi; settings: for IC50: read-out: IC50 24 h T. cruzi
[2] = system: T.b. rhodesiense STIB900; test: T.b. rhodesiense STIB900 assay, 72 h; type: cell-based; settings: Trypanosoma brucei; STIB900, 72 h; unit inferred; read-out: IC50 T. bR (T.b. rhodesiense)
[3] = system: T. cruzi; test: T. cruzi compound wash off assay (48 h with compound, wash off, 72 h without); type: cell-based, Trypanosoma cruzi; settings: for Fold Change of IC50, wash off vs 48 h: IC50 from 48 h incubation to IC50 following wash off and further 72 h; for IC50: read-out: IC50 Wash Off
[4] = system: T. cruzi Tulahuen strain parasites in 3T3 host cells; test: T. cruzi 48 h image-based assay; type: cell-based, Trypanosoma cruzi
[5] = system: T.b. brucei; test: T.b. brucei temporal viability (time-kill) assay, 48 h, PrestoBlue; type: cell-based, Trypanosoma brucei brucei; settings: for IC50: read-out: IC50 48 h T.b. brucei
[6] = system: T. cruzi and T.b. brucei; test: Speed of action and cidality classification from temporal and wash off assays; type: cell-based, Trypanosoma cruzi, Trypanosoma brucei brucei; settings: for Speed of Action (FA/SA): TC = T. cruzi, TBB = T.b. brucei; for Speed of Action (Table 5): prioritised compounds, Fast/Slow
[7] = system: T.b. gambiense STIB930; test: T.b. gambiense STIB930 assay, 72 h; type: cell-based; settings: Trypanosoma brucei, unit inferred, read-out: IC50 T. Bg STIB930 (T.b. gambiense)
[8] = system: HEPG2 cells; test: HEPG2 cytotoxicity assay; type: cell-based, human
[9] = system: T.b. brucei; test: T.b. brucei temporal viability (time-kill) assay, 24 h, PrestoBlue; type: cell-based, Trypanosoma brucei brucei; settings: for IC50: read-out: IC50 24 h T.b. brucei
Description: Time-kill assays was undertaken as previously described, using the REDOX reagent PrestoBlue® [24]. […] Control compounds were added at the same concentrations at outlined for the resazurin-based assays.

[10] = system: T.b. brucei bloodstream 427 strain parasites; test: T.b. brucei 72 h REDOX-based (resazurin) viability assay; type: cell-based, Trypanosoma brucei brucei
[11] = dosed orally in mice; ref [51]; cited from earlier work
[12] = system: HEK293 cells; test: HEK293 cytotoxicity assay; type: cell-based, human; settings: Homo sapiens; HEK293, 72 h; NA = not active; highest dose 79 µM unless given
[13] = target: T. cruzi recombinant CYP51 (TcCYP51) (Trypanosoma cruzi, UniProt Q7Z1V1); test: biochemical; settings: criterion: IC50 within a log difference to posaconazole
[14] = selectivity index in relation to 3T3 host cells; highest dose 3T3 73 µM
[15] = selectivity index in relation to HEK293 cells
[16] = selectivity index in relation to HEPG2 cells
[17] = Trypanosoma cruzi, NA = not active at given concentration
[18] = Trypanosoma cruzi, T. cruzi, 48 h incubation, wash off, further 72 h
[19] = Trypanosoma cruzi, TULAHUEN, 48 h; read-out: Emax % (T. cruzi) (converted)
[20] = Trypanosoma cruzi, TULAHUEN, 48 h; read-out: IC50 (T. cruzi)
[21] = Trypanosoma brucei, read-out: Emax 48 h T.b. brucei (converted)
[22] = Trypanosoma brucei, read-out: Emax 24 h T.b. brucei (converted)
[23] = T. cruzi, 48 h incubation, wash off, further 72 h

Sequence of T. cruzi recombinant CYP51 (TcCYP51) (Q7Z1V1 whole entry): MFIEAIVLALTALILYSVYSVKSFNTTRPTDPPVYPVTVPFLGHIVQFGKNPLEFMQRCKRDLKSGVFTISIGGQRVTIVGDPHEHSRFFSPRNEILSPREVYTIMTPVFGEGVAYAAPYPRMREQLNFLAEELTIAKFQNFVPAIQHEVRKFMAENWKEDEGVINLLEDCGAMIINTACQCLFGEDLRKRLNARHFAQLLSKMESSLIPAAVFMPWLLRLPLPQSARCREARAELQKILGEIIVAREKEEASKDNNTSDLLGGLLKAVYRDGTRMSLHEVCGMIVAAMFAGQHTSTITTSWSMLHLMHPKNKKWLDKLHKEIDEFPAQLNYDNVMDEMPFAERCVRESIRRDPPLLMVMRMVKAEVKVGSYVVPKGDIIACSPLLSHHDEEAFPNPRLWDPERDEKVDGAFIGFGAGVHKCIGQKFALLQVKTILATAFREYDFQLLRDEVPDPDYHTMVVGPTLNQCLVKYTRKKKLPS

Compound | Fold Change of IC50, wash off vs 48 h ([3]; T. cruzi) [fold] | IC50 [1, 17] [nM] | IC50 [3, 18] [nM] | IC50 [2] [nM] | SI (T. cruzi) 3T3 [4, 14] | SI (T. cruzi) HEK [4, 15] | SI (T. cruzi) (HEP) [4, 16] | IC50 ([5]; Trypanosoma brucei) [nM] | Speed of Action (FA/SA) [6] | Speed of Action (Table 5) [6] | IC50 [7] [nM] | IC50 ([9]; Trypanosoma brucei) [nM] | Emax ([10]; Trypanosoma brucei, 72 h) [%] | IC50 ([10]; Trypanosoma brucei, 72 h) [nM] | Emax ([1]; Trypanosoma cruzi) [%] | Emax [4, 19] [%] | IC50 [4, 20] [nM] | Emax [5, 21] [%] | SI (T.b. brucei) HEK [10, 15] | SI (T.b. brucei) (HEP) [10, 16] | further results
Nc1nc2ccc(-c3cncc(Oc4ccc(F)cc4)c3)cc2[nH]1 [MMV 687248] | 1.3 |  |  | 1200 ± 540 | >49 | 53 | 13 | 200 ± 32 | FA (Fast-acting (FA) = IC50 value can be determined following 24 h incubation, <10-fold difference in the IC50 value from 24 to 72 h) | Fast | 240 ± 22 | 930 ± 47 | 99 | 510 ± 45 |  |  |  |  |  |  | IC50 ([1]; Trypanosoma cruzi): 4100 ± 1300 nM; IC50 ([3]; Trypanosoma cruzi): 2000 ± 39 nM; Emax ([4]; Trypanosoma cruzi, TULAHUEN, 48 h, read-out: Emax % (T. cruzi)): 99%; IC50 ([4]; Trypanosoma cruzi, TULAHUEN, 48 h, read-out: IC50 (T. cruzi)): 1500 ± 130 nM; Emax ([5]; Trypanosoma brucei, read-out: Emax 48 h T.b. brucei): 99%; IC50 ([8]; Homo sapiens, HepG2, 72 h, read-out: IC50 (HEP)): 19600 nM; Emax ([9]; Trypanosoma brucei, read-out: Emax 24 h T.b. brucei): 87%; SI (T.b. brucei) (HEP) [10]: 38; SI (T.b. brucei) HEK [10]: > 155
CCCCN(CCCC)c1c(C#N)cc(S(=O)(=O)Nc2ccccc2)cc1C#N [MMV 688467] | 0.91 |  |  |  | >32 | > 34 | 10 |  | SA (TC) |  |  |  |  |  |  |  |  |  | > 254 | 74 | Emax 24 h T. cruzi [1]: 75%; IC50 ([1]; NA = not active at given concentration): 4400 ± 730 nM; Emax Wash Off [3, 23]: 100%; IC50 [3, 23]: 2100 ± 440 nM; Emax % (T. cruzi) ([4]; 48 h): 98%; Emax % (T. cruzi) ([4]; 48 h; listed as MMV688467): > 95%; IC50 ([4]; 48 h; read-out: IC50 (T. cruzi)): 2300 ± 460 nM; Emax 48 h T.b. brucei [5]: 100%; IC50 [5]: 460 ± 18 nM; IC50 ([8]; HEPG2, 72 h, NA = not active, highest dose 79 µM unless given, read-out: IC50 (HEP) (converted)): 23000 nM; Emax 24 h T.b. brucei [9]: 88%; IC50 [9]: 1200 ± 350 nM; Emax % (T.b. brucei) ([10]; 72 h): 99%; IC50 ([10]; 72 h): 310 ± 6.9 nM

Further lines, with some results ahead:

Fold Change of IC50, wash off vs 48 h ([3]; T. cruzi) [fold] | IC50 [1, 17] [nM] | IC50 [3, 18] [nM] | Compound | IC50 [2] [nM] | SI (T. cruzi) 3T3 [4, 14] | SI (T. cruzi) HEK [4, 15] | SI (T. cruzi) (HEP) [4, 16] | IC50 ([5]; Trypanosoma brucei) [nM] | Speed of Action (FA/SA) [6] | Speed of Action (Table 5) [6] | IC50 [7] [nM] | IC50 ([9]; Trypanosoma brucei) [nM] | Emax ([10]; Trypanosoma brucei, 72 h) [%] | IC50 ([10]; Trypanosoma brucei, 72 h) [nM] | Emax ([1]; Trypanosoma cruzi) [%] | Emax [4, 19] [%] | IC50 [4, 20] [nM] | Emax [5, 21] [%] | SI (T.b. brucei) HEK [10, 15] | SI (T.b. brucei) (HEP) [10, 16] | further results
1.1 | 2400 ± 1300 | 1100 ± 480 | O=C(NCc1nnc2n1CCCCC2)c1ccc(-c2ccc(F)cc2)o1 [MMV 688796] | 46 ± 31 | >61 | >66 (>66) | >66 (>66) | 97 ± 4.8 | FA (Fast-acting (FA) = IC50 value can be determined following 24 h incubation, <10-fold difference in the IC50 value from 24 to 72 h) | Fast | 160 ± 11 | 240 ± 53 | 99 | 120 ± 23 | 91 | 100 | 1200 ± 400 | 100 | >658 (>658) | >658 (>658) | Emax [3, 18]: 98%; Half-life [11]: 3.9 h; Emax [9, 22]: 82%
3.4 | 1280 ± 560 | 510 ± 80 | O=C(Nc1ccc2c(c1)B(O)OC2)c1ccccc1C(F)(F)F [MMV 652003] |  | >487 | 45 | > 548 | 110 ± 12 | FA (Fast-acting (FA) = IC50 value can be determined following 24 h incubation, <10-fold difference in the IC50 value from 24 to 72 h) | Fast |  | 450 ± 67 | 100 | 92 ± 2.7 | 93 | 100 | 150 ± 4 | 100 | 74 | > 862 | IC50 [12]: 6800 ± 204 nM; Emax [3, 18]: 99%; Emax [9, 22]: 100%
0.58 | 900 ± 170 | 310 ± 67 | CCc1ccccc1-n1c(C)cn2c3c(=O)n(C(C(=O)OC)C(C)C)c(=O)n(C)c3nc12 (stereo not drawn) [MMV 688550] | 80 ± 1.4 | >138 | >149 (>149) | >149 (>149) | 21 ± 0.53 | FA (Fast-acting (FA) = IC50 value can be determined following 24 h incubation, <10-fold difference in the IC50 value from 24 to 72 h) | Fast | < 1 | 22 ± 14 | 99 | 25 ± 0.83 | 80 | 100 | 530 ± 110 | 99 | >3160 (>3160) | >3160 (>3160) | Inhibition of TcCYP51 (in words) [13]: did not display activity; Emax [9, 22]: 100%
